We go through 3 compounds from patent US20050153395A1, “Unique integrin binding site in connective tissue growth factor (CTGF)” (CHILDREN'S HOSPITAL INC., priority 2003, published 2005).

Assay [1] has as its system vascular endothelial cells, intestinal epithelial, and hepatic stellate cells. Briefly: Adhesion of cell types to 10 kDa CTGF. It counts as cell-based. The protocol:
To confirm the functionality of residues 247-349 of SEQ ID NO: 1 (containing module 4 alone; denoted as CTGF4), this region of CTGF was produced as a maltose binding protein (MBP) fusion protein in E. coli as described in Ball et al., J Endocrinol; 176: R1-R7, 2003. […] HPLC-purified 10 kDa CTGF promoted 3T3 cell adhesion in a dose-dependent manner, with maximal binding at 8 ng/well. […] Also, the binding of all cell types to 10 kDa CTGF was reduced by EDTA treatment, though this effect was relatively modest in 3T3 cells. Thus, E coli-derived CTGF isoforms comprising essentially module 4 are intrinsically functional in the absence of the other constituent modules of CTGF.

Assay [2] concerns hepatic stellate cells (HSC). Kind of assay: HSC adhesion assay on coated wells (CyQUANT fluorescence). It counts as cell-based, rat. The note with it: for inhibition of CTGF4-mediated HSC adhesion: wells coated 2 μg/ml CTGF4, antibody/IgG 25 μg/ml. The method, then:
CTGF4 is known to be expressed in hepatic stellate cells (HSC) and to induce proliferation and extracellular matrix (ECM) production in these cells. (Williams et al., J Hepatol 32, 754-761, 2000; Paradis et al., Lab Invest 82, 767-774, 2002). The following experiments were carried out to determine if HSCs adhere to CTGF. HSCs were isolated from normal Sprague-Dowley rate by sequential perfusion with pronase/collagenase and purified by density gradient separation as described in Vyas et al. (Gastroenterology 109: 889-898, 1995).
The cells were subsequently detached using 1 mM EDTA PBS (137 mM NaCl, 2.7 mM KCl, 4.3 mM Na2HPO4, 1.4 mM KH2PO4, pH 7.3), washed twice in DMEM and resuspended in serum free medium containing 0.5% BSA. The cells-were plated (1.25×10^4 cells/well) in a 96 well plate coated with one of the following: 2 μg/ml CTGF isoform (CTGF1-4, CTGF3-4, CTGF4), 1 μg/ml laminin, or 4 μg/ml vitronectin and incubated for 20 minutes at 37° C. Subsequently the cells were washed with PBS and the adherent cells were fixed with 10% formalin and stained with CyQUANT GR dye/cell lysis buffer (Molecular Probes , Eugene, Oreg.) according to the manufacturer's instructions. The number of cells that adhered to CTGF isoforms or ECM protein was quantified by measuring the sample fluorescence intensity at Ex/Em: 480/520 nm using a micro-plate reader (CytoFluor™ 2350).
To determine if the CTGF-mediated HSC adhesion was carried out through integrin receptors, the experiment described above were carried out in the presence and absence of 10 mM EDTA. […] It is widely believed that Mn^2+ induces conformational shifts that mimic the physiological activation of β1 and β3 integrins (Roberts et al., J Biol Chem 278: 1975-1985, 2003, van der Pauw et al., J Periodontal Res 37: 317-323, 2002) as Mn^2+-induced activation leads to enhanced ligand-binding affinity and cell adhesion (Mould et al., J Biol Chem 277: 19800-19805, 2002, Loftus & Liddington J Clin Invest 100: S77-81, 1997, Lin et al., J Biol Chem 272: 14236-14243, […]).
Synthetic peptides GRGDsp (1 mM), GRGEsp (1 mM), Echistatin (2 μM) or vehicle buffer alone were added to the, HSC culture medium 30 minutes prior to plating.
In addition, adhesion assays as described in Example 1 were carried out in CTGF4 coated plates in the presence and absence of monoclonal antibody specific for αvβ3 (LM609).

For assay [3], the system named is pancreatic stellate cells (PSC). Kind of assay: PSC adhesion assay on coated wells. It counts as cell-based, rat. The note with it: for inhibition of PSC adhesion to CTGF4: 2 μg/ml CTGF4 coat, peptides 35 μM; for inhibition of PSC adhesion to CTGF4 / inhibition of PSC adhesion to CTGF1-4: antibodies 25 μg/ml, heparin 2 μg/ml. The text has this: Rat PSCs were isolated by a modification of the method described by Phillips et al., Gut; 52:677-82, 2003. Briefly, pancreatic tissue was digested in situ with 0.03% collagenase P (Roche, Indianapolis, Ind.) in HBSS by perfusion through the thoracic aorta. This protocol was approved by the Institutional Animal Care and Use Committee of Children's Research Institute, Columbus, Ohio. The tissue was pooled, minced with scissors, and then digested with 0.05% collagenase P, 0.02% protease XIV (Sigma, St. Louis), and DNase I (Roche, Indianapolis, Ind.) in HBSS. The resulting cell suspension was centrifuged in a 12% Optiprep gradient at 1400 g for 14 minutes. Stellate cells separated into a hazy band just above the interface of a the gradient and the aqueous buffer. This band was harvested, and the cells washed and resuspended in DMEM supplemented with 25 mM Hepes buffer, 10% FBS, and 100 U/ml penicillin in, 100 μg/ml streptomycin. The, cells were maintained at 37° C. in a humidified atmosphere of 5% CO2/95% air.
The ability of activated PSC to adhere to non-tissue culture plastic microtiter wells coated with recombinant CTGF1-4, CTGF3-4 or CTGF4 was investigated. The solid phase binding assay was carried out as described in Example 2. […] To assess the possibility that CTGF-mediated PSC adhesion involved cell surface integrins, the effect of divalent cations on cell adhesion was examined, as described in Example 2. […]
Because CTGF is a heparin-binding protein, this property was further investigated.
To identify the peptides that bind to PSCs, cell adhesion assays were carried out as described in Example 3.
To further investigate the peptide binding, P2 or P5 (10 μM) or vehicle buffer alone (no add) were added to PSC cell suspensions for 30 minutes at room temperature.

The target of the next assay is integrin α5β1 (Homo sapiens, UniProt P05556+P08648). Briefly: Solid phase ELISA of integrin α5β1 binding. The settings on record: peptides 35 μM; EDTA 5 mM. The method, then:
In a second approach, a solid phase binding assay was used in which CTGF1-4 or FN were individually coated onto microtiter wells that were subsequently incubated with purified integrin α5β1. The presence of immobilized integrin α5β1 was detected by ELISA using an anti-integrin α5β1 antibody similar to the methods described in Example 3 above. In addition, CTGF1-4 bound to integrin α5β1 in a dose-dependent manner, with maximal binding at 2 μg/ml CTGF. This level of CTGF1-4 (2 μg/ml) binding was the same as that elicited by 2 μg/ml FN, a well known ligand of integrin α5β1. In a similar experiment, 2 μg/ml of CTGF1-4;CTGF3-4 or CTGF4 were individually precoated onto microtiter wells. Using the solid-phase assay, integrin α5β1 bound to CTGF1-4, CTGF3-4 or CTGF4 See FIG. 5 (Panel B).
To directly analyze whether α5β1 integrin binds to CTGF4, microtiter wells coated with CTGF4 (2 μg/ml) or FN (4 μg/ml) were used in an ELISA assay to detect integrin binding, as described in Example 3. For these assays, 1 μg/ml integrin α5β1, alone or in the presence of 35 μM of P2peptide (CTGF[257-272]) and 35 μM of P5 peptide (CTGF [285-291]), were added to the precoated plates. […] The binding between CTGF4 and integrin α5 β1 was blocked by peptide P5 (CTGF [285-291]) or peptide P2 (CTGF[257-272]). […]
(In general: ELISA stands for enzyme-linked immunosorbent assay.)

For a further assay, the system named is CTGF. Briefly: CTGF production by PSCs (immunoprecipitation). It counts as cell-based, rat. The settings on record: TGF-β1 20 ng/ml; P<0.01.
The subject of the next assay is CTGF promoter. Kind of assay: CTGF promoter luciferase reporter pCCN2-Luc in PSCs. It is filed as cell-based, rat. The protocol:
TGF-β1 is a well characterized transcriptional activator of CTGF in other cell types. To further examine the mechanism by which TGF-β1 and other fibrogenic stimulators could influence CTGF production in PSCs, CTGF promoter activity in PSCs was evaluated using the luciferase reporter, pCCN2-Luc, as described in Gao et al., (J Hepatol 2004;40:431-8).
(In a reporter assay the amount or activity of a reporter protein is the signal.)

Assay [4] concerns PSCs. Briefly: PSC chemotaxis (migration) assay in culture insert. It is filed as cell-based, rat. The method, then: To examine whether CTGF plays a role in PSC migration, a chemotaxis assay was carried out in which the migratory behavior of PSCs in the upper chamber of a culture insert was assessed following addition of CTGF to the lower chamber. […] PSC migration was also promoted by FN, PDGF or TGF-β1.

Assay [5] relates to PSCs. Briefly: PSC DNA synthesis, [3H]thymidine incorporation. The note with it: 24 hours; CTGF1-4 effect in 0.1% serum, not in serum-free medium. It counts as cell-based, rat. The protocol:
To measure the effect of CTGF on cell proliferation, DNA synthesis was measured by ^3H incorporation in PSCs. The cells were incubated for 24 hours with 0.2 μCi [^3H] thymidine in each well (24-well plate). The incorporation of [^3H] thymidine into PSC DNA was determined using a scintillation counter after the cells had been washed with PBS, fixed with 10% methanol, treated with cold 5% trichloroacetic acid, and lysed in 0.3 N NaOH.
In general terms: Dividing cells build labelled thymidine or BrdU into new DNA.

[6] abbreviates: EDTA 10 mM, GRGDsp 1 mM, Echistatin 2 μM, heparin 2 μg/ml.

integrin α5β1, sequence (P08648 42-894 limits assumed): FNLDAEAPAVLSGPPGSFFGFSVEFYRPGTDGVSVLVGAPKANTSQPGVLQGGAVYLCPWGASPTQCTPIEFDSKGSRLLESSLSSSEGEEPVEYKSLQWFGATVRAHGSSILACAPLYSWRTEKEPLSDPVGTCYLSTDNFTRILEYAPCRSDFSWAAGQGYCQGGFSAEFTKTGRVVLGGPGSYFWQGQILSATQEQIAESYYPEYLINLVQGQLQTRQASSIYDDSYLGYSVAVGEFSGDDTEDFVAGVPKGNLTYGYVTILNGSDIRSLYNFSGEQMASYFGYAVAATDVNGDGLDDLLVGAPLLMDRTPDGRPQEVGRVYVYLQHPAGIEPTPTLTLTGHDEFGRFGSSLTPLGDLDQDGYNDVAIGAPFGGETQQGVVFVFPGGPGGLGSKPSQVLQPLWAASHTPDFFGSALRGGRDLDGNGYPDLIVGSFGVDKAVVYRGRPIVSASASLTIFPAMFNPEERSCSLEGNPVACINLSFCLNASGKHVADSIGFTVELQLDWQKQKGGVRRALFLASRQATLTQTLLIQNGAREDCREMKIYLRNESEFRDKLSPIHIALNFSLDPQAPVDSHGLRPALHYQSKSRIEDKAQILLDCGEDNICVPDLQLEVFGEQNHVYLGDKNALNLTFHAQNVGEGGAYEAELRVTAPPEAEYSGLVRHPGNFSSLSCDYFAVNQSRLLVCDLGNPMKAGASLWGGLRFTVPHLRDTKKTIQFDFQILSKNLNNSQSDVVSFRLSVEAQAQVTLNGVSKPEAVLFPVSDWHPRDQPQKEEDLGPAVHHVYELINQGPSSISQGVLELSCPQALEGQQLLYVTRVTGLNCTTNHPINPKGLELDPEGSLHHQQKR
integrin α5β1, sequence (P08648 895-1049 partner limits assumed): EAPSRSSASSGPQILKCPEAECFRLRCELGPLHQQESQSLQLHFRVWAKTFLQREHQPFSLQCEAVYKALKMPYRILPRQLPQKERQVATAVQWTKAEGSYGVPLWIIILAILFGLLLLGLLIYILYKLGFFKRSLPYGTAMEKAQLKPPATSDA
integrin α5β1, sequence (P05556 21-798): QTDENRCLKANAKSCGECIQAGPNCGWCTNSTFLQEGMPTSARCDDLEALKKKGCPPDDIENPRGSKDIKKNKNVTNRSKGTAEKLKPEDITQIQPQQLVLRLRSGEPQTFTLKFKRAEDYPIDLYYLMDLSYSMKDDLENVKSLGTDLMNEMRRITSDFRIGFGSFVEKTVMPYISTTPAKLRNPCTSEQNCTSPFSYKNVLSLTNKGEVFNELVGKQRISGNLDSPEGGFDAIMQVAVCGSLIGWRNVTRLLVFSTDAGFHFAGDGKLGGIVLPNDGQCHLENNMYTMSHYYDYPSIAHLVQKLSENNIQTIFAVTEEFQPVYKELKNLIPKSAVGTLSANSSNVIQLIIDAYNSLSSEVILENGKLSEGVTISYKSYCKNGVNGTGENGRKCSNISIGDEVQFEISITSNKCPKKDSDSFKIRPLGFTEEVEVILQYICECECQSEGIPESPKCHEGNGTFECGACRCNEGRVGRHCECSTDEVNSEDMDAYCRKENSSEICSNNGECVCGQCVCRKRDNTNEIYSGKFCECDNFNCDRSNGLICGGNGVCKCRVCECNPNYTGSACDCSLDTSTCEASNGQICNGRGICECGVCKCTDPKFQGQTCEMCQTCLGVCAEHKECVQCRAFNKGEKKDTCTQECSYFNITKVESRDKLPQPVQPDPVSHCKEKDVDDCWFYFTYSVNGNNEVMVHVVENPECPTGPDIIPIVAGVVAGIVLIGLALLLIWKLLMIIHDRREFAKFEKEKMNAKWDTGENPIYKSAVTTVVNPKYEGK

On to `O=C(O)CN(CCN(CC(=O)O)CC(=O)O)CC(=O)O` [EDTA, reference compound], for which the “binding of all cell types to 10 kDa CTGF after EDTA treatment” value in assay [1] (effect relatively modest in 3T3 cells) is on record as “reduced”. In assay [2] (wells coated 2 μg/ml CTGF1-4, EDTA 10 mM, GRGDsp 1 mM, Echistatin 2 μM), the “inhibition of CTGF1-4-mediated HSC adhesion” value worked out at 50%. Moreover, the “inhibition of CTGF3-4-mediated HSC adhesion” value in assay [2] (wells coated 2 μg/ml CTGF3-4, EDTA 10 mM, GRGDsp 1 mM, Echistatin 2 μM) is on record as 50%. In addition, in assay [2] (setting [6]), the “inhibition of CTGF4-mediated HSC adhesion” value turned out to be 90%. In assay [3] (EDTA 5 mM), the “inhibition of PSC adhesion to CTGF4” value is “significantly decreased”, the “inhibition of PSC adhesion to CTGF3-4” value is reported as “significantly decreased” and the “inhibition of PSC adhesion to CTGF1-4” value was “significantly decreased”. The “inhibition of binding between CTGF4 and integrin α5β1” value at integrin α5β1 is “blocked”.

Take “TGF-β1: transcriptional activator of CTGF”: the “CTGF1-4, CTGF3-4 and CTGF4 levels in cell lysates and conditioned medium” value with CTGF is on record as “significantly increased”. In the assay on CTGF promoter (P<0.01 compared with no stimulation), the “activity of pCCN2-Luc in PSC” value is listed as “significantly increased”. Besides, in the assay on CTGF promoter (P<0.05), the “activation of pCCN2-Luc compared among four stimulators” value is “strongest activation”. In addition, the PSC migration entry in the assay with PSCs [4] (substance in lower chamber) was “promoted”. In addition, in the assay on PSCs [5], the “PSC proliferation (DNA synthesis)” value is given as “did not induce proliferation”.

heparin: the “inhibition of binding of each cell type to 10 kDa CTGF” value in assay [1] (5 μg/ml heparin, each cell type incl. 3T3) is reported as “completely inhibited”. In assay [2] (peptide-coated wells, heparin 2 μg/ml), the “inhibition of HSC adherence to CTGF[257-272]” value was “abrogated”. In addition, the “inhibition of CTGF4-mediated HSC adhesion” value in assay [2] (setting [6]) was “completely abrogated”. Moreover, the “inhibition of vitronectin-mediated HSC adhesion” value in assay [2] (wells coated 4 μg/ml vitronectin) is recorded as “little effect”. Besides, in assay [3] (EDTA 5 mM), the “inhibition of PSC adhesion to CTGF4” value is “blocked” and the “inhibition of PSC adhesion to CTGF1-4” value is “blocked”. In assay [3] (fibronectin coat), the “inhibition of FN-mediated PSC adhesion” value is “little effect”. The “inhibition of PSC migration in response to CTGF” value in the assay on PSCs [4] (CTGF1-4 or CTGF4) was “blocked”.
